According to patent US10370697B2, “Propeptide-luciferase fusion proteins and methods of use thereof” (THE BROAD INSTITUTE, INC., priority 2011, dated 2019):

The compounds below were run on MIN6 cells expressing proinsulin-luciferase construct (assay: High-throughput luciferase secretion screen, proinsulin-luciferase reporter, 384-well). Conditions: difference of Z-score with and without glucose.
Assay type: cell-based, mouse
Procedure: MIN6 and INS-1E cells were expanded to 80% confluence in their respective growth media, washed once in PBS and incubated for 1 hour at 37° C. in KRB without glucose. Cells were then dissociated, spun at 300 g×2 minutes, resuspended in fresh KRB without glucose and filtered through 40 μm mesh (Becton Dickenson®). Next, the cells were counted and diluted in KRB to 1×10^6 cells per mL, and glucose was added as required for each experiment. Cells were then seeded in 384-well format, 3×10^4 cells in 30 μL per well, using a Multidrop™ Combi device (Thermo Scientific®, Billerica, Mass.). Compounds from the Pharmakon 1600 Collection (Microsource Discovery Systems™, Gaylordsville, Conn.) were pinned into each well using a CyBio® Vario (CyBio®, Jena, Germany) to a final concentration of 30 μM, and the plates were then incubated for 1 hour at 37° C. The plates were then spun at 300 g×2 minutes and the supernatant transferred to a new 384-well plate. Coelenterazine substrate was then added to a final concentration of 20 μM and luciferase activity determined using a standard plate reader (Biotek®).
For the high-throughput screens, the Z-score of each test compound was calculated using the formula: […]
where x is the log-transformed, signal decay-adjusted luciferase signal from a compound-treated well, μ is the mean of the log-transformed luciferase signals from the DMSO-treated wells on the same plate, and a is the standard deviation of the log-transformed luciferase signals of the DMSO-treated wells across all plates (to allow for cross-plate comparison of compounds). Prior to calculating the Z-score, a row-based correction factor was applied to all luciferase readings to adjust for the rapid signal decay occurring during the course of each 384-well plate read. The signal decay was modeled as a logarithmic function (Microsoft® Excel) and then used to adjust each well's luciferase reading based on the corresponding row within the plate.
We performed a pilot chemical screen at a substimulatory glucose concentration (100 mg/dL) in MIN6 cells using a collection of 1600 known bioactive small molecules, with the sulfonylurea glipizide included as a positive control. […] Several commonly used drugs without known links to beta-cell function caused significant increases in luciferase secretion in our assay (compounds summarized in Table 1).
As there is a well-recognized need for glucose-dependent small-molecule agonists of insulin secretion, we subsequently evaluated whether our assay could be adapted to find such secretagogues. We repeated the 1600-compound screen in the presence and absence of a substimulatory glucose concentration (100 mg/dL).

| Compound | Z-score Δ |
| --- | --- |
| CC(=O)[C@@]1(O)CC[C@H]2[C@@H]3CCC4=CC(=O)CC[C@]4(C)[C@H]3CC[C@@]21C [Hydroxyprogesterone] | 15.6 |

Same assay, conditions: luciferase secretion, 1600 compound screen, 100 mg/dL glucose, 30 μM, 1 hour, Z-score vs DMSO wells

| Compound | Z-score |
| --- | --- |
| Nc1nc(N)c2nc(-c3ccccc3)c(N)nc2n1 [Triamterene] | 76.3 |
| Cc1ccccc1C(OCCN(C)C)c1ccccc1 (stereo not drawn) [Orphenadrine] | 27.4 |
| CCN(CC)CCOC(=O)C(Cc1cccc2ccccc12)CC1CCCO1 (stereo not drawn) [Nafronyl] | 25.4 |
| C[C@@H]1CC(=O)NN=C1c1ccc(NN=C(C#N)C#N)cc1 [Levosimendan] | 40.7 |
| Nc1c2c(nc3ccccc13)CCCC2 [Tacrine] | 38.8 |
| CCN(CC)CCNC(C(=O)OCCC(C)C)c1ccccc1 (stereo not drawn) [Camylofine] | 23.8 |
| OC(CCN1CCCCC1)(c1ccccc1)C1CCCCC1 (stereo not drawn) [Trihexyphenidyl] | 50.5 |
| Oc1ccc(OCc2ccccc2)cc1 [Monobenzone] | 38.7 |
| CN(C)CC[C@@H](c1ccc(Cl)cc1)c1ccccn1 [(S)-chlorpheniramine] | 31.8 |

Same assay, conditions: luciferase secretion, repeated 1600-compound screen, 100 mg/dL glucose, 30 μM, 1 hour

| Compound | Z-score With Glucose |
| --- | --- |
| Clc1ccc(Cn2c(CN3CCCC3)nc3ccccc32)cc1 [Clemizole] | 12.2 |
| CCN(CC)CCOC(=O)C(Cc1cccc2ccccc12)CC1CCCO1 (stereo not drawn) [Nafronyl] | 17.8 |
| COc1c2ccoc2cc2oc(=O)ccc12 [Bergapten] | 20.9 |
| CC(=O)[C@@]1(O)CC[C@H]2[C@@H]3CCC4=CC(=O)CC[C@]4(C)[C@H]3CC[C@@]21C [Hydroxyprogesterone] | 18.3 |
| CCN(CC)CCNC(C(=O)OCCC(C)C)c1ccccc1 (stereo not drawn) [Camylofine] | 4.7 |
| CCCNCC(O)COc1ccccc1C(=O)CCc1ccccc1 (stereo not drawn) [Propafenone] | 10.5 |
| O=C(CCCN1CCC2(CC1)C(=O)NCN2c1ccccc1)c1ccc(F)cc1 [Spiperone] | 9.0 |
| Oc1ccc(OCc2ccccc2)cc1 [Monobenzone] | 31.8 |

Same assay, conditions: luciferase secretion, repeated 1600-compound screen, absence of glucose, 30 μM, 1 hour

| Compound | Z-score Without Glucose |
| --- | --- |
| Clc1ccc(Cn2c(CN3CCCC3)nc3ccccc32)cc1 [Clemizole] | 0.4 |
| COc1ccccc1OCCNCC(O)COc1cccc2[nH]c3ccccc3c12 (stereo not drawn) [Carvedilol] | 1.5 |
| CCN(CC)CCOC(=O)C(Cc1cccc2ccccc12)CC1CCCO1 (stereo not drawn) [Nafronyl] | 3.4 |
| COc1c2ccoc2cc2oc(=O)ccc12 [Bergapten] | 2.9 |
| CC(=O)[C@@]1(O)CC[C@H]2[C@@H]3CCC4=CC(=O)CC[C@]4(C)[C@H]3CC[C@@]21C [Hydroxyprogesterone] | 2.7 |
| CCN(CC)CCNC(C(=O)OCCC(C)C)c1ccccc1 (stereo not drawn) [Camylofine] | 0.2 |
| CCCNCC(O)COc1ccccc1C(=O)CCc1ccccc1 (stereo not drawn) [Propafenone] | 1.5 |
| O=C(CCCN1CCC2(CC1)C(=O)NCN2c1ccccc1)c1ccc(F)cc1 [Spiperone] | −2.8 |
| Oc1ccc(OCc2ccccc2)cc1 [Monobenzone] | 5.6 |

Same assay, conditions: screen in presence and absence of 100 mg/dL glucose

| Compound | luciferase secretion |
| --- | --- |
| Cc1cnc(C(=O)NCCc2ccc(S(=O)(=O)NC(=O)NC3CCCCC3)cc2)cn1 [glipizide] | caused luciferase secretion regardless of the ambient glucose level |

These compounds were tested on MIN6 mouse beta cell line (assay: Luciferase secretion, preproamylin-Gaussia luciferase (PAG) reporter). Conditions: 1 hour at the indicated glucose concentrations; 25 uM glipizide, 50 uM IBMX, 20 uM forskolin, 40 mM KCl, 20 uM PMA.
Assay type: cell-based
Procedure: FIG. 4 is a graph showing the pre-proamylin-luciferase reporter in MIN6 cells responds as predicted to known insulin secretagogues. Cells were treated for 1 hour at the indicated glucose concentrations with either DMSO, 25 uM glipizide, 2.5 uM glucokinase activator (GKA), 50 uM 3-isobutyl-1-methylxanthine (IBMX), 20 uM forskolin, 40 mM potassium chloride (KCl), or 20 uM phorbol myristate acetate (PMA).
For standard secretion assays, MIN6 and INS-1E cells were plated in 96-well format at a density of 4×10^4 cells per well in 100 μL of their respective growth media and incubated overnight at 37° C. in 5% CO2 to allow attachment. Cells were washed once with PBS and incubated for 1 hour at 37° C. in sterile, 0.45 μm-filtered Krebs Ringer Buffer (KRB) containing 138 mM NaCl, 5.4 mM KCl, 2.6 mM MgCl2, 2.6 mM CaCl2, 5 mM NaHCO3, 10 mM HEPES and 5 g/L bovine serum albumin (Sigma®). The cells were then washed in KRB once and stimulated for 1 hour in 100 μL of fresh KRB containing varying amounts of glucose and compounds. The insulin concentration was determined using an insulin ELISA (ALPCO®) with the supplied protocol. Luciferase activity was determined from the same samples by adding the coelenterazine substrate (Nanolight®) to the supernatant to a final concentration of 20 μM and reading on a standard plate reader (Biotek™, Winooski, Vt.).
The preproamlyin constructs was introduced into the MIN6 mouse beta cell line (FIGS. 3A and 3B).

| Compound | luciferase activity (luminescence) |
| --- | --- |
| CC(C)Cn1c(=O)n(C)c(=O)c2[nH]cnc21 [IBMX, 3-isobutyl-1-methylxanthine] | increased luminescence in a dose-dependent manner |
| CCCCCCCCCCCCCC(=O)O[C@@H]1[C@@H](C)[C@@]2(O)[C@@H](C=C(CO)C[C@]3(O)C(=O)C(C)=C[C@@H]23)[C@@H]2C(C)(C)[C@]12OC(C)=O [PMA, phorbol myristate acetate] | increased luminescence in a dose-dependent manner |
| Cc1cnc(C(=O)NCCc2ccc(S(=O)(=O)NC(=O)NC3CCCCC3)cc2)cn1 [glipizide] | did not increase luciferase activity |
| [Cl-].[K+] [KCl, potassium chloride] | increased luminescence in a dose-dependent manner |

These compounds were tested on Alpha TC1 mouse alpha cell line (assay: Luciferase secretion, proglucagon-luciferase (G2) reporter in alpha cells). Conditions: glucose 0-300 mg/dL (0-16.7 mM).
Assay type: cell-based
Procedure: The preglucagon G^2 construct was introduced into the Alpha TC1 mouse alpha cell line. Cells were stimulated with IBMX, arginine, or potassium chloride (KCl) and varying amounts of glucose in the range of 0-300 mg/dL (0-16.7 mM). Luciferase activity of the supernatant was determined (FIG. 6).

| Compound | luciferase secretion (luciferase activity of the supernatant) |
| --- | --- |
| CC(C)Cn1c(=O)n(C)c(=O)c2[nH]cnc21 [IBMX, 3-isobutyl-1-methylxanthine] | no secretion of luciferase |
| N=C(N)NCCC[C@H](N)C(=O)O [arginine] | secreted luciferase |
| [Cl-].[K+] [KCl, potassium chloride] | secreted luciferase |

What follows are compounds tested on GLUTag mouse L-cell line (assay: Luciferase secretion, proglucagon-luciferase (G2) reporter in L cells). Conditions: not given.
Assay type: cell-based
Procedure: The proglucagon G^2 construct was also introduced into the GLUTag mouse L-cell line. Cells were stimulated with Forskolin/IBMX, KCl, glipizide, PMA, and L-glutamine. Luciferase activity of the supernatant was determined.

| Compound | luciferase secretion (luciferase activity of the supernatant) |
| --- | --- |
| CCCCCCCCCCCCCC(=O)O[C@@H]1[C@@H](C)[C@@]2(O)[C@@H](C=C(CO)C[C@]3(O)C(=O)C(C)=C[C@@H]23)[C@@H]2C(C)(C)[C@]12OC(C)=O [PMA, phorbol myristate acetate] | secreted luciferase |
| Cc1cnc(C(=O)NCCc2ccc(S(=O)(=O)NC(=O)NC3CCCCC3)cc2)cn1 [glipizide] | no secretion of luciferase |
| [Cl-].[K+] [KCl, potassium chloride] | secreted luciferase |
| NC(=O)CC[C@H](N)C(=O)O [L-glutamine] | no secretion of luciferase |
